Results: US8022206B2 (OSI Pharmaceuticals, LLC, priority 2008, dated 2011)
pIC50: −log10 of the molar value.

How the values were obtained:
[1] = target: RON (human) (Homo sapiens, UniProt Q04912); assay: RON (human) AlphaScreen kinase assay, Km of ATP; type: biochemical; settings: AlphaScreen, Km of ATP; read-out: RON biochemical IC50
How it was run: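 Detection used PT66 AlphaScreen beads added in Tris pH 7.5/NaCl/EDTA/BSA buffer, read after 1 h incubation. Vehicle-only DMSO wells served as controls.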

[2] = target: MET (human) (Homo sapiens, UniProt P08581); assay: MET (human) AlphaScreen kinase assay, Km of ATP; type: biochemical; settings: AlphaScreen, Km of ATP; read-out: Met biochemical IC50
MET (human), sequence (P08581 25-1390): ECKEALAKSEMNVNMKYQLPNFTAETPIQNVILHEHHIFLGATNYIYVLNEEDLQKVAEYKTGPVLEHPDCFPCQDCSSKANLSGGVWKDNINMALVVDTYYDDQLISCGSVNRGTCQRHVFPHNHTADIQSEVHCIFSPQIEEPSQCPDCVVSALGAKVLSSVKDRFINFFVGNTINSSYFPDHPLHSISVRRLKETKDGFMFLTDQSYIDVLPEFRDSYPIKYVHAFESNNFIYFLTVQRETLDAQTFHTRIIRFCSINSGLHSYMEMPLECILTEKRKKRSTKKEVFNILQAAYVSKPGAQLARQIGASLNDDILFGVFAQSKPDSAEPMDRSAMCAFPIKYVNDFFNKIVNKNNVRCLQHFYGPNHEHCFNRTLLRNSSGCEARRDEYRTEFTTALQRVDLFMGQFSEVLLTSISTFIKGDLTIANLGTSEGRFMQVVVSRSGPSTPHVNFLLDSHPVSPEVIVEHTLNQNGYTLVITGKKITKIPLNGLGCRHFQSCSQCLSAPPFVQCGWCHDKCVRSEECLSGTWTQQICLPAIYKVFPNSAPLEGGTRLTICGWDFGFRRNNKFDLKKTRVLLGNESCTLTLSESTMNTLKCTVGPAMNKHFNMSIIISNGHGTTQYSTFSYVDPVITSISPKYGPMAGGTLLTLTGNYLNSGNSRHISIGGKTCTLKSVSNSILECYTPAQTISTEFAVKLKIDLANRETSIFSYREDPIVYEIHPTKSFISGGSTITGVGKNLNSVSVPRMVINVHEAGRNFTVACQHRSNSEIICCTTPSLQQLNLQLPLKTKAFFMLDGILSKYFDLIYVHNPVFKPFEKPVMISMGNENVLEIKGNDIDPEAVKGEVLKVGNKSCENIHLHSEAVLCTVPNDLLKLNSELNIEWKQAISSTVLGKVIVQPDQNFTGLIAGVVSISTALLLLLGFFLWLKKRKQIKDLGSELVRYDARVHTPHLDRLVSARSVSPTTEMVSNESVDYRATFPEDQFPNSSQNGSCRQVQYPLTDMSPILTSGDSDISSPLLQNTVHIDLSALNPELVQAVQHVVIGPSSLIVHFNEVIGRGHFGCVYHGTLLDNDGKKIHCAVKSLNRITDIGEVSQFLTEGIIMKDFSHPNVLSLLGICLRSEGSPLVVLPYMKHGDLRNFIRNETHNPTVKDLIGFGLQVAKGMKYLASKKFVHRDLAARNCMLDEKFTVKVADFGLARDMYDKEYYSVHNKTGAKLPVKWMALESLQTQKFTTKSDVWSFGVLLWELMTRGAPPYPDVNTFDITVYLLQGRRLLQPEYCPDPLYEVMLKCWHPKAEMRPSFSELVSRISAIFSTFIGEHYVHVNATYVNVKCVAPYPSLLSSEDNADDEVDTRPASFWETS
How it was run: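 Human MET at lot-optimised concentration in 50 mM Tris pH 7.4 buffer with 1 mM DTT, compound at 1% DMSO final; enzyme starts the reaction, 60 min at RT.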

RON (human), sequence (Q04912 25-1400): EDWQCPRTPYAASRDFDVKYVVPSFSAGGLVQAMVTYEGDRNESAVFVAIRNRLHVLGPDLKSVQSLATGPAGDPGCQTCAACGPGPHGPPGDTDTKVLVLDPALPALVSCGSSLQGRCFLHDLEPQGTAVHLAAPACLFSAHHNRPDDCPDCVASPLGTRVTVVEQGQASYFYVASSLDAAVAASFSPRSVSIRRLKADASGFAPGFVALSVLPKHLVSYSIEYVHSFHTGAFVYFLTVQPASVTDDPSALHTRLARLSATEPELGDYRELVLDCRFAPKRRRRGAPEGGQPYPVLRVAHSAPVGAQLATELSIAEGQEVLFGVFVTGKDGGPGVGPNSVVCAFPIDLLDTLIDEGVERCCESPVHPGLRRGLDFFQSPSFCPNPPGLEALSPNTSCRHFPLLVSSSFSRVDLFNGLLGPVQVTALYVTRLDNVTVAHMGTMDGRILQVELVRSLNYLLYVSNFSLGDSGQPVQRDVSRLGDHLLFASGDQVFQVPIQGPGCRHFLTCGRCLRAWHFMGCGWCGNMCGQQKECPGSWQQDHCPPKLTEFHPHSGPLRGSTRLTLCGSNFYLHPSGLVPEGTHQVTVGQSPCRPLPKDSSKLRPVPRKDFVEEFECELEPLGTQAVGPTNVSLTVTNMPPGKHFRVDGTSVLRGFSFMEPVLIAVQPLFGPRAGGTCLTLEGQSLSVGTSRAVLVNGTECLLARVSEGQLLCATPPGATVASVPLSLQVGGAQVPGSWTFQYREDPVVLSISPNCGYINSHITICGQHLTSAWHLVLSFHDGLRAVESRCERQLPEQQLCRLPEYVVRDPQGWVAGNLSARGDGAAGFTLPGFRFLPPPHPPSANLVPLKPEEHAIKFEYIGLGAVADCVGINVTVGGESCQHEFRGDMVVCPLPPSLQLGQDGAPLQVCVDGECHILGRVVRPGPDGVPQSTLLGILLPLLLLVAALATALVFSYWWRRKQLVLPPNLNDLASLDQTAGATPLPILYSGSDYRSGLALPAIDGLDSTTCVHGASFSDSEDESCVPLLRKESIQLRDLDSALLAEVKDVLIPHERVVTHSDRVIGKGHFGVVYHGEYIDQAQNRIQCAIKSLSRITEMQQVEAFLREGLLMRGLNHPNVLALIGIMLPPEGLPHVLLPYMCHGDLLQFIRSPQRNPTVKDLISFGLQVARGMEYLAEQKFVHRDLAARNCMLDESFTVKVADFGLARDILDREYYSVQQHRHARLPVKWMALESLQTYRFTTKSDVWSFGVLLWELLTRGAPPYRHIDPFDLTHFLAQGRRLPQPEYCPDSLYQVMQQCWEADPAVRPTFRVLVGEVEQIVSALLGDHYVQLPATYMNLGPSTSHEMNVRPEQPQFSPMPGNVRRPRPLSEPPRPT

SMILES | pIC50 [1] | pIC50 [2]
C[C@@H](Oc1c(N)ncc2c(C3=CCN(C(=O)[C@H]4CCNC4)CC3)coc12)c1c(Cl)ccc(F)c1Cl [Example 237, (4-{6-Amino-7-[(R)-1-(2,6-dichloro-3-fluorophenyl)ethoxy]-furo[3,2-c]pyridin-3-yl}-3,6-dihydro-2H-pyridin-1-yl)-(S)-pyrrolidin-3-ylmethanone] | > 6.30 | > 6.30
CCNC(=O)N1CCC(n2cc(-c3coc4c(O[C@H](C)c5c(Cl)ccc(F)c5Cl)c(N)ncc34)cn2)CC1 [Example 273, 4-(4-{6-Amino-7-[(1R)-1-(2,6-dichloro-3-fluorophenyl)ethoxy]furo[3,2-c]pyridin-3-yl}-1H-pyrazol-1-yl)-N-ethylpiperidine-1-carboxamide] | 5.30 to 6.30 | 5.30 to 6.30
CCS(=O)(=O)Nc1cccc(-c2coc3c(O[C@H](C)c4c(Cl)ccc(F)c4Cl)c(N)ncc23)c1 [Example 245, Ethanesulfonic acid (3-{6-amino-7-[(R)-1-(2,6-dichloro-3-fluorophenyl)ethoxy]-furo[3,2-c]pyridin-3-yl}phenyl)amide] | 5.30 to 6.30 | 5.30 to 6.30
C[C@@H](Oc1c(N)ncc2c(C3=CCN(C(=O)[C@H](N)Cc4cnc[nH]4)CC3)coc12)c1c(Cl)ccc(F)c1Cl [Example 264, (2R)-2-Amino-1-[4-{6-amino-7-[(1R)-1-(2,6-dichloro-3-fluoro-phenyl)ethoxy]furo[3,2-c]pyridin-3-yl}-3,6-dihydropyridin-1(2H)-yl]-3-(1H-imidazol-5-yl)propan-1-one] | 4.70 to 5.30 | > 6.30
C[C@@H](Oc1c(N)ncc2c(C3=CCN(C(=O)CN4CCCC4)CC3)coc12)c1c(Cl)ccc(F)c1Cl [Example 13, 1-(4-{6-Amino-7-[(R)-1-(2,6-dichloro-3-fluorophenyl)-ethoxy]-furo[3,2-c]pyridin-3-yl}-3,6-dihydro-2H-pyridin-1-yl)-2-pyrrolidin-1-ylethanone] | > 6.30 | > 6.30
C[C@@H](Oc1c(N)ncc2c(-c3cc(C(=O)N(C)C)cs3)coc12)c1c(Cl)ccc(F)c1Cl [Example 328, 5-{6-Amino-7-[(R)-1-(2,6-dichloro-3-fluorophenyl)ethoxy]furo[3,2-c]pyridin-3-yl}thiophene-3-carboxylic acid Dimethylamide] | 5.30 to 6.30 | 5.30 to 6.30
CC(Oc1c(N)ncc2c(-c3cnn(C4CCNCC4)c3)coc12)c1c(Cl)ccc2ccccc12 (stereo not shown) [Example 369, 7-[1-(2-Chloronaphthalen-1-yl)ethoxy]-3-(1-piperidin-4-yl-1H-pyrazol-4-yl)furo[3,2-c]pyridin-6-ylamine] | 5.30 to 6.30 | 5.30 to 6.30
C[C@@H](Oc1c(N)ncc2c(C3=CCN(Cc4ccccc4)CC3)coc12)c1c(Cl)ccc(F)c1Cl [Example 39, 3-(1-Benzyl-1,2,3,6-tetrahydropyridin-4-yl)-7-[(R)-1-(2,6-dichloro-3-fluorophenyl)-ethoxy]-furo[3,2-c]pyridin-6-ylamine] | 5.30 to 6.30 | > 6.30
C[C@@H](Oc1c(N)ncc2c(C3=CCOCC3)coc12)c1c(Cl)ccc(F)c1Cl [Example 138, 7-[(R)-1-(2,6-Dichloro-3-fluorophenyl)-ethoxy]-3-(3,6-dihydro-2H-pyran-4-yl)-furo[3,2-c]pyridin-6-ylamine] | 5.30 to 6.30 | > 6.30
Cc1ccc(-c2coc3c(O[C@H](C)c4c(Cl)ccc(F)c4Cl)c(N)ncc23)s1 [Example 95, 7-[(R)-1-(2,6-Dichloro-3-fluorophenyl)ethoxy]-3-(5-methylthiophen-2-yl)furo[3,2-c]pyridin-6-ylamine] | > 6.30 | > 6.30
C[C@@H](Oc1c(N)ncc2c(-c3ccc(N4CCOCC4)nc3)coc12)c1c(Cl)ccc(F)c1Cl [Example 107, 7-[(R)-1-(2,6-Dichloro-3-fluorophenyl)ethoxy]-3-(6-morpholin-4-ylpyridin-3-yl)-furo[3,2-c]pyridin-6-ylamine] | 5.30 to 6.30 | 5.30 to 6.30
